Data from US10765114B2, “4-amino-6-(pyridyl and 2-substitutedphenyl)-picolinates and 6-amino-2-(pyridyl and 2-substitutedphenyl)-pyrimidine-4-carboxylates and their use as herbicides” (Dow AgroSciences LLC, priority 2013, dated 2020).
Read-outs that look alike come from different tables or passages of the source.

Legend:
[1] = tested on: Key Broadleaf Weed and Crop Species; experiment: Post-Emergent Test II (Table 5); format: in vivo; settings: post-emergence, 336 h, given as numbers; for pest or weed control at 70 g/ha: application rate 70 (kg ai/ha; footnote: g ai/ha); for pest or weed control at 140 g/ha: application rate 140 (kg ai/ha; footnote: g ai/ha)
Method: (§1) Seeds or nutlets of the desired test plant species were planted in Sun Gro Metro-Mix® 360 planting mixture, which typically has a pH of 6.0 to 6.8 and an organic matter content of about 30 percent, in plastic pots with a surface area of 64 square centimeters. When required to ensure good germination and healthy plants, a fungicide treatment and/or other chemical or physical treatment was applied. The plants were grown for 7-21 days in a greenhouse with an approximate 15 h photoperiod which was maintained at about 23-29° C. during the day and 22-28° C. during the night. Nutrients and water were added on a regular basis and supplemental lighting was provided with overhead metal halide 1000-Watt lamps as necessary. The plants were employed for testing when they reached the first or second true leaf stage.
(§2) A weighed amount, determined by the highest rate to be tested, of each test compound was placed in a 25 mL glass vial and was dissolved in 4 mL of a 97:3 v/v mixture of acetone and DMSO to obtain concentrated stock solutions. […] The concentrated stock solutions obtained were diluted with 20 mL of an aqueous mixture containing acetone, water, isopropyl alcohol, DMSO, Atplus 411F crop oil concentrate, and Triton® X-155 surfactant in a 48.5:39:10:1.5:1.0:0.02 v/v ratio to obtain spray solutions containing the highest application rates. Additional application rates were obtained by serial dilution of 12 mL of the high rate solution into a solution containing 2 mL of 97:3 v/v mixture of acetone and DMSO and 10 mL of an aqueous mixture containing acetone, water, isopropyl alcohol, DMSO, Atplus 411F crop oil concentrate, and Triton X-155 surfactant in a 48.5:39:10:1.5:1.0:0.02 v/v ratio to obtain ½×, ¼×, ⅛× and 1/16× rates of the high rate. Compound requirements are based upon a 12 mL application volume at a rate of 187 liters per hectare (L/ha). Formulated compounds were applied to the plant material with an overhead Mandel track sprayer equipped with 8002E nozzles calibrated to deliver 187 L/ha over an application area of 0.503 square meters at a spray height of 18 inches (43 cm) above the average plant canopy height. Control plants were sprayed in the same manner with the solvent blank.
(§3) The treated plants and control plants were placed in a greenhouse as described above and watered by subirrigation to prevent wash-off of the test compounds. After 14 days, the condition of the test plants as compared with that of the untreated plants was determined visually and scored on a scale of 0 to 100 percent where 0 corresponds to no injury and 100 corresponds to complete kill and presented as indicated in Table A. Some of the compounds tested, application rates employed, plant species tested, and results are given in Table 5.

[2] = tested on: Key Grass and Sedge Weeds as well as Grass Crops; experiment: Post-Emergent Test II (Table 6); format: in vivo; settings: given as numbers; for Visual Growth Reduction (%) 14 Days After Application, CYPSS: CYPSS (CYPES: yellow nutsedge, Cyperus esculentus); for Visual Growth Reduction (%) 14 Days After Application, DIGSA: DIGSA: crabgrass (Digitaria sanguinalis); for Visual Growth Reduction (%) 14 Days After Application, ECHSS: ECHSS (ECHCG: barnyardgrass, Echinochloa crus-galli); for Visual Growth Reduction (%) 14 Days After Application, ORYSS: ORYSS (ORYSA: rice, Oryza sativa); for Visual Growth Reduction (%) 14 Days After Application, ORYSS / Visual Growth Reduction (%) 14 Days After Application, TRZSS / Visual Growth Reduction (%) 14 Days After Application, ZEAMX: crop; for Visual Growth Reduction (%) 14 Days After Application, SETFA: SETFA: giant foxtail (Setaria faberi); for Visual Growth Reduction (%) 14 Days After Application, SORVU: SORVU: johnsongrass (Sorghum vulgare); for Visual Growth Reduction (%) 14 Days After Application, TRZSS: TRZSS (TRZAS: wheat, spring, Triticum aestivum); for Visual Growth Reduction (%) 14 Days After Application, ZEAMX: ZEAMX: maize, corn (Zea mays)
Method: as §1, §2, §3

[3] = Abutilon theophrasti, ABUTH: velvetleaf (Abutilon theophrasti), read-out: Visual Growth Reduction (%) 14 Days After Application ABUTH
[4] = Amaranthus retroflexus, AMARE: redroot pigweed (Amaranthus retroflexus), read-out: Visual Growth Reduction (%) 14 Days After Application AMARE
[5] = Brassica napus, BRSSS: oilseed rape, canola (Brassica napus), read-out: Visual Growth Reduction (%) 14 Days After Application BRSSS
[6] = Chenopodium album, CHEAL: lambsquarters (Chenopodium album), read-out: Visual Growth Reduction (%) 14 Days After Application CHEAL
[7] = Euphorbia heterophylla, EPHHL: wild poinsettia (Euphorbia heterophylla), read-out: Visual Growth Reduction (%) 14 Days After Application EPHHL
[8] = Helianthus annuus, HELAN: sunflower (Helianthus annuus), read-out: Visual Growth Reduction (%) 14 Days After Application HELAN
[9] = Viola tricolor, VIOTR: wild pansy (Viola tricolor), read-out: Visual Growth Reduction (%) 14 Days After Application VIOTR

Compound CCc1c(-c2cc(N)c(Cl)c(C(=O)OC)n2)ccc(Cl)c1F [Compound 21] has a melting point of 140 to 143 °C.

Work on COC(=O)c1nc(-c2ccc(C(F)F)nc2)c(F)c(N)c1Cl [Compound 34, methyl 4-amino-5-chloro-6′-(difluoromethyl)-3-fluoro-2,3′-bipyridine-6-carboxylate] yielded a melting point of 144 to 146 °C.

Compound C=Cc1c(C(=O)O)nc(-c2ccc(C(F)(F)F)nc2)c(F)c1N [Compound 101] has a pest or weed control at 70 g/ha [1, 3] of 85%, a pest or weed control at 140 g/ha [1, 3] of 85% and a pest or weed control at 70 g/ha [1, 4] of 100%. It also gave a pest or weed control at 140 g/ha [1, 4] of 100%, a pest or weed control at 70 g/ha [1, 5] of 70% and a pest or weed control at 140 g/ha [1, 5] of 80%. For the same compound, the pest or weed control at 70 g/ha [1, 6] was 100%, the pest or weed control at 140 g/ha [1, 6] was 98% and the pest or weed control at 70 g/ha [1, 7] was 98%. The pest or weed control at 140 g/ha [1, 7] was 100%, the pest or weed control at 70 g/ha [1, 8] was 80% and the pest or weed control at 140 g/ha [1, 8] was 85%. For the same compound, the pest or weed control at 70 g/ha [1, 9] was 75%, the pest or weed control at 140 g/ha [1, 9] was 80% and the “Visual Growth Reduction (%) 14 Days After Application, CYPSS” value ([2]; 70 g ai/ha) was 80%. The “Visual Growth Reduction (%) 14 Days After Application, CYPSS” value ([2]; 140 g ai/ha) was 80%, the “Visual Growth Reduction (%) 14 Days After Application, DIGSA” value ([2]; 70 g ai/ha) was 0% and the “Visual Growth Reduction (%) 14 Days After Application, DIGSA” value ([2]; 140 g ai/ha) was 10%. For the same compound, the “Visual Growth Reduction (%) 14 Days After Application, ECHSS” value ([2]; 70 g ai/ha) was 80%, the “Visual Growth Reduction (%) 14 Days After Application, ECHSS” value ([2]; 140 g ai/ha) was 60% and the “Visual Growth Reduction (%) 14 Days After Application, ORYSS” value ([2]; 70 g ai/ha) was 40%. For the same compound, the “Visual Growth Reduction (%) 14 Days After Application, ORYSS” value ([2]; 140 g ai/ha) was 95%, the “Visual Growth Reduction (%) 14 Days After Application, SETFA” value ([2]; 70 g ai/ha) was 20% and the “Visual Growth Reduction (%) 14 Days After Application, SETFA” value ([2]; 140 g ai/ha) was 40%. For the same compound, the “Visual Growth Reduction (%) 14 Days After Application, SORVU” value ([2]; 70 g ai/ha) was 45%, the “Visual Growth Reduction (%) 14 Days After Application, SORVU” value ([2]; 140 g ai/ha) was 75% and the “Visual Growth Reduction (%) 14 Days After Application, TRZSS” value ([2]; 70 g ai/ha) was 10%. For the same compound, the “Visual Growth Reduction (%) 14 Days After Application, TRZSS” value ([2]; 140 g ai/ha) was 40%, the “Visual Growth Reduction (%) 14 Days After Application, ZEAMX” value ([2]; 70 g ai/ha) was 0% and the “Visual Growth Reduction (%) 14 Days After Application, ZEAMX” value ([2]; 140 g ai/ha) was 25%.

For C=Cc1c(N)nc(-c2ccc(C(F)(F)F)nc2)nc1C(=O)O [Compound 102], the pest or weed control at 70 g/ha [1, 3] was 15%, the pest or weed control at 140 g/ha [1, 3] was 15% and the pest or weed control at 70 g/ha [1, 4] was 85%. The pest or weed control at 140 g/ha [1, 4] was 100%, the pest or weed control at 70 g/ha [1, 5] was 20% and the pest or weed control at 140 g/ha [1, 5] was 35%. For the same compound, the pest or weed control at 70 g/ha [1, 6] was 80%, the pest or weed control at 140 g/ha [1, 6] was 75% and the pest or weed control at 70 g/ha [1, 7] was 85%. It also gave a pest or weed control at 140 g/ha [1, 7] of 100%, a pest or weed control at 70 g/ha [1, 8] of 65% and a pest or weed control at 140 g/ha [1, 8] of 75%. For the same compound, the pest or weed control at 70 g/ha [1, 9] was 35%, the pest or weed control at 140 g/ha [1, 9] was 80% and the “Visual Growth Reduction (%) 14 Days After Application, CYPSS” value ([2]; 70 g ai/ha) was 10%. For the same compound, the “Visual Growth Reduction (%) 14 Days After Application, CYPSS” value ([2]; 140 g ai/ha) was 35%, the “Visual Growth Reduction (%) 14 Days After Application, DIGSA” value ([2]; 70 g ai/ha) was 0% and the “Visual Growth Reduction (%) 14 Days After Application, DIGSA” value ([2]; 140 g ai/ha) was 0%. The “Visual Growth Reduction (%) 14 Days After Application, ECHSS” value ([2]; 70 g ai/ha) was 30%, the “Visual Growth Reduction (%) 14 Days After Application, ECHSS” value ([2]; 140 g ai/ha) was 70% and the “Visual Growth Reduction (%) 14 Days After Application, ORYSS” value ([2]; 70 g ai/ha) was 0%. For the same compound, the “Visual Growth Reduction (%) 14 Days After Application, ORYSS” value ([2]; 140 g ai/ha) was 0%, the “Visual Growth Reduction (%) 14 Days After Application, SETFA” value ([2]; 70 g ai/ha) was 0% and the “Visual Growth Reduction (%) 14 Days After Application, SETFA” value ([2]; 140 g ai/ha) was 0%. For the same compound, the “Visual Growth Reduction (%) 14 Days After Application, SORVU” value ([2]; 70 g ai/ha) was 0%, the “Visual Growth Reduction (%) 14 Days After Application, SORVU” value ([2]; 140 g ai/ha) was 0% and the “Visual Growth Reduction (%) 14 Days After Application, TRZSS” value ([2]; 70 g ai/ha) was 0%. The “Visual Growth Reduction (%) 14 Days After Application, TRZSS” value ([2]; 140 g ai/ha) was 10%, the “Visual Growth Reduction (%) 14 Days After Application, ZEAMX” value ([2]; 70 g ai/ha) was 0% and the “Visual Growth Reduction (%) 14 Days After Application, ZEAMX” value ([2]; 140 g ai/ha) was 0%.
